Experimental data taken from US9845319B2, “Amide substituted thiazoles as modulators of RORyt” (Janssen Pharmaceutica NV, priority 2014, dated 2017).

Columns and labels:
[1] = biological target: T1, human RORγt ligand binding domain (RORγt LBD) (Homo sapiens, UniProt P51449); assay: RORγt ThermoFluor assay; settings: estimated from thermal shift concentration response
T1 construct: His-tag (N); TurboTEV protease cleavage site (ENLYFQG) (N); made in house; host or cells: E. coli (pHIS1, a modified pET expression vector)
T1 sequence (P51449 with tags, fused parts or gaps): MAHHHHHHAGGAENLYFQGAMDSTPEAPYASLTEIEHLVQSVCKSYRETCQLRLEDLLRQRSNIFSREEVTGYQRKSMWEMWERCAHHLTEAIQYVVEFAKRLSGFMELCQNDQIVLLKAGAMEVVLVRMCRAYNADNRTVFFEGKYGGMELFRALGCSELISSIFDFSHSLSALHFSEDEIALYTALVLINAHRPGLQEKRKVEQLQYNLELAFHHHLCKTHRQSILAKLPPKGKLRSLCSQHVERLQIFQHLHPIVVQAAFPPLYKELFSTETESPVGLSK
Procedure: This approach is applicable to a wide variety of systems, and rigorous in theoretical interpretation through quantitation of equilibrium binding constants (KD).
The shift in the melting point described as a ΔTm is proportional to the concentration and affinity of the ligand.
Protein and compound solutions are dispensed into black 384-well polypropylene PCR microplates (Abgene) and overlayed with silicone oil (1 μL, Fluka, type DC 200) to prevent evaporation.
Bar-coded assay plates are robotically loaded onto a thermostatically controlled PCR-type thermal block and then heated at a typical ramp-rate of 1° C./min for all experiments.
Fluorescence was measured by continuous illumination with UV light (Hamamatsu LC6) supplied via fiber optic and filtered through a band-pass filter (380-400 nm; >6 OD cutoff). Fluorescence emission of the entire 384-well plate was detected by measuring light intensity using a CCD camera (Sensys, Roper Scientific) filtered to detect 500±25 nm, resulting in simultaneous and independent readings of all 384 wells. Images were collected at each temperature, and the sum of the pixel intensity in a given area of the assay plate was recorded versus temperature. Reference wells contained RORγt without compounds, and the assay conditions were as follows: • 0.065 mg/mL RORγt • 60 μM 1,8-ANS • 100 mM Hepes, pH 7.0 • 10 mM NaCl • 2.5 mM GSH • 0.002% Tween-20
Project compounds were arranged in a pre-dosed mother plate (Greiner Bio-one) wherein compounds are serially diluted in 100% DMSO by 1:2 from a high concentration of 10 mM over 12 columns within a series (column 12 is a reference well containing DMSO, no compound). The compounds were robotically dispensed directly into assay plates (1×=46 nL) using a Hummingbird capillary liquid handling instrument (Digilab). Following compound dispense, protein and dye in buffer was added to achieve the final assay volume of 3 μL, followed by 1 μL of silicone oil.

[2] = biological target: T2, full-length human RORγt (Homo sapiens, UniProt P51449); assay: RORγt (full-length human) Reporter Assay, Conditions A; format: cell-based; settings: for IC50: HEK293T cells, GAL4-DBD-RORγt, luciferase, read-out: RORγt (FL) Reporter Assay A, IC50; for inhibition at 2 µM: read-out: RORγt (FL) Reporter Assay A, % inhibition (* at 2 μM), 2 μM compound concentration (footnote *); for inhibition at 6 µM: read-out: RORγt (FL) Reporter Assay A, % inhibition @ 6 μM, 6 μM compound
T2 construct: expressed in transfected cells; host or cells: HEK293T, transiently transfected with pCMV-BD-ROR
T2 sequence (P51449 1-497 isoform P51449-2): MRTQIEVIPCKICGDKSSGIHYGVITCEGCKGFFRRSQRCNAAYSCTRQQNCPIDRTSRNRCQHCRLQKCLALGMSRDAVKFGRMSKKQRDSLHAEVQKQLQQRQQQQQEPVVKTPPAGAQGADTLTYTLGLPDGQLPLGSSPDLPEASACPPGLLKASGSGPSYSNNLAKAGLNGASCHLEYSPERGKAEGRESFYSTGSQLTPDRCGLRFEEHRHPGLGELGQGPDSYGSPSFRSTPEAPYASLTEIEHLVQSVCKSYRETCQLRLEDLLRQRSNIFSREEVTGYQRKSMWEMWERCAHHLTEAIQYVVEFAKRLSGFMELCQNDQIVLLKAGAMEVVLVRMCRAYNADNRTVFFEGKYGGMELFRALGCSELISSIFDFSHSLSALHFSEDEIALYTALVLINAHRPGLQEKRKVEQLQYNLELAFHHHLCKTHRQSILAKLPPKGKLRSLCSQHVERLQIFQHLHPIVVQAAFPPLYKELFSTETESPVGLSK
Procedure: After overnight (16 to 20 hours) incubation, media were removed and cells were lysed with 20 μL 1× Passive Lysis Buffer (Promega) for 10-15 minutes. Luminescence was measured using a BMG LUMIstar OPTIMA plate reader, after addition of 75 μL/well firefly luciferase buffer, followed by 75 μL/well Renilla luciferase buffer. To calculate the effect of compounds on RORγt activity, firefly values were normalized against values of DMSO only and values of reference compound at saturating concentration, then further normalized against Renilla signals. IC50s were generated by plotting final Renilla normalized data against compound concentration and percent inhibition was calculated against DMSO control.

Structure (SMILES)	Kd [1] [nM]	IC50 [2] [nM]	inhibition at 6 µM [2] [%]	further results
CCN(CC)C(=O)c1nc(-c2cc(C(C)(C)O)ccn2)sc1-c1ccc(S(=O)(=O)N[C@@H](C)C(F)(F)F)c(Cl)c1Cl [Example 17/1, (S)-5-(2,3-Dichloro-4-(N-(1,1,1-trifluoropropan-2-yl)sulfamoyl)phenyl)-N,N-diethyl-2-(4-(2-hydroxypropan-2-yl)pyridin-2-yl)thiazole-4-carboxamide]	7.8	27		inhibition at 0.22 µM ([2]; 0.22 μM compound concentration (footnote ***), read-out: RORγt (FL) Reporter Assay A, % inhibition (*** at 0.22 μM)): 91%
C[C@H](NS(=O)(=O)c1ccc(-c2sc(-c3noc(=O)[nH]3)nc2C(=O)N2CCC(F)CC2)c(Cl)c1Cl)C(F)(F)F [Example 14, (S)-2,3-Dichloro-4-(4-(4-fluoropiperidine-1-carbonyl)-2-(5-oxo-4,5-dihydro-1,2,4-oxadiazol-3-yl)thiazol-5-yl)-N-(1,1,1-trifluoropropan-2-yl)benzenesulfonamide]	280	> 2000		inhibition at 2 µM [2]: -25%
C[C@H](NS(=O)(=O)c1ccc(-c2sc(-c3nnc(CC(C)(C)O)o3)nc2C(=O)N2CCC(F)(F)C2)c(Cl)c1Cl)C(F)(F)F [Example 3/1, (S)-2,3-Dichloro-4-(4-(3,3-difluoropyrrolidine-1-carbonyl)-2-(5-(2-hydroxy-2-methylpropyl)-1,3,4-oxadiazol-2-yl)thiazol-5-yl)-N-(1,1,1-trifluoropropan-2-yl)benzenesulfonamide]	16	57	109	
C[C@H](NS(=O)(=O)c1ccc(-c2sc(-c3nnc(C4(C(F)(F)F)CC4)o3)nc2C(=O)N2CCC(F)(F)CC2)c(Cl)c1Cl)C(F)(F)F [Example 1/3, (S)-2,3-Dichloro-4-(4-(4,4-difluoropiperidine-1-carbonyl)-2-(5-(1-(trifluoromethyl)cyclopropyl)-1,3,4-oxadiazol-2-yl)thiazol-5-yl)-N-(1,1,1-trifluoropropan-2-yl)benzenesulfonamide]	0.7	4.5		inhibition at 0.67 µM ([2]; 0.67 μM compound concentration, read-out: RORγt (FL) Reporter Assay A, % inhibition (** at 0.67 μM)): 103%
C[C@H](NS(=O)(=O)c1ccc(-c2sc(-c3nnc(C(C)(C)O)o3)nc2C(=O)N2CCCC[C@@H]2C)c(Cl)c1Cl)C(F)(F)F [Example 4/3, 2,3-Dichloro-4-(2-(5-(2-hydroxypropan-2-yl)-1,3,4-oxadiazol-2-yl)-4-((S)-2-methylpiperidine-1-carbonyl)thiazol-5-yl)-N—((S)-1,1,1-trifluoropropan-2-yl)benzenesulfonamide]	0.38	26	105	
C[C@H](NS(=O)(=O)c1ccc(-c2sc(-c3nnc(CC(C)(C)O)o3)nc2C(=O)N2CC(F)(F)C[C@@H]2C)c(Cl)c1Cl)C(F)(F)F [Example 3/2, 2,3-Dichloro-4-(4-((S)-4,4-difluoro-2-methylpyrrolidine-1-carbonyl)-2-(5-(2-hydroxy-2-methylpropyl)-1,3,4-oxadiazol-2-yl)thiazol-5-yl)-N—((S)-1,1,1-trifluoropropan-2-yl)benzenesulfonamide]	0.59	23	107	
Cc1cc(C(O)(C(F)(F)F)C(F)(F)F)ccc1-c1sc(-c2nnc(C(C)(C)O)o2)nc1C(=O)N1CCC[C@@H]1C [Example 31, (S)-(5-(4-(1,1,1,3,3,3-hexafluoro-2-hydroxypropan-2-yl)-2-methylphenyl)-2-(5-(2-hydroxypropan-2-yl)-1,3,4-oxadiazol-2-yl)thiazol-4-yl)(2-methylpyrrolidin-1-yl)methanone]	18			
Cc1cc(C(O)(C(F)(F)F)C(F)(F)F)ccc1-c1sc(-c2noc(C(C)(C)O)n2)nc1C(=O)N1CCC[C@@H]1C [Example 32, (S)-(5-(4-(1,1,1,3,3,3-hexafluoro-2-hydroxypropan-2-yl)-2-methylphenyl)-2-(5-(2-hydroxypropan-2-yl)-1,2,4-oxadiazol-3-yl)thiazol-4-yl)(2-methylpyrrolidin-1-yl)methanone]	27			
CC[C@H](NS(=O)(=O)c1ccc(-c2sc(-c3noc(CC(C)(C)C(=O)O)n3)nc2C(=O)N2CCCC[C@@H]2C)c(Cl)c1Cl)C(F)(F)F [Example 10, 3-(3-(5-(2,3-Dichloro-4-(N—((S)-1,1,1-trifluorobutan-2-yl)sulfamoyl)phenyl)-4-((S)-2-methylpiperidine-1-carbonyl)thiazol-2-yl)-1,2,4-oxadiazol-5-yl)-2,2-dimethylpropanoic acid]		9	104	
C[C@H]1CCCN1C(=O)c1nc(-c2noc(C(C)(C)O)n2)sc1-c1ccc(C(O)(C(F)(F)F)C(F)(F)F)cc1C(F)F [Example 30, (S)-(5-(2-(difluoromethyl)-4-(1,1,1,3,3,3-hexafluoro-2-hydroxypropan-2-yl)phenyl)-2-(5-(2-hydroxypropan-2-yl)-1,2,4-oxadiazol-3-yl)thiazol-4-yl)(2-methylpyrrolidin-1-yl)methanone]	22			
C[C@H]1CCCN1C(=O)c1nc(-c2nnc(C(C)(C)O)o2)sc1-c1ccc(C(O)(C(F)(F)F)C(F)(F)F)cc1C(F)F [Example 29, (S)-(5-(2-(difluoromethyl)-4-(1,1,1,3,3,3-hexafluoro-2-hydroxypropan-2-yl)phenyl)-2-(5-(2-hydroxypropan-2-yl)-1,3,4-oxadiazol-2-yl)thiazol-4-yl)(2-methylpyrrolidin-1-yl)methanone]	17			
CC[C@H](NS(=O)(=O)c1ccc(-c2sc(-c3nnc(C(C)(C)O)o3)nc2C(=O)N2CCC(F)CC2)c(Cl)c1Cl)C(F)(F)F [Example 6/1, (S)-2,3-Dichloro-4-(4-(4-fluoropiperidine-1-carbonyl)-2-(5-(2-hydroxypropan-2-yl)-1,3,4-oxadiazol-2-yl)thiazol-5-yl)-N-(1,1,1-trifluorobutan-2-yl)benzenesulfonamide]				inhibition at 2 µM [2]: 102%
CC(C)(O)c1nnc(-c2nc(C(=O)N3CCC(F)(F)CC3)c(-c3ccc(C(O)(C(F)(F)F)C(F)(F)F)cc3C(F)F)s2)o1 [Example 28, (5-(2-(difluoromethyl)-4-(1,1,1,3,3,3-hexafluoro-2-hydroxypropan-2-yl)phenyl)-2-(5-(2-hydroxypropan-2-yl)-1,3,4-oxadiazol-2-yl)thiazol-4-yl)(4,4-difluoropiperidin-1-yl)methanone]	5.5			
CC[C@H](NS(=O)(=O)c1ccc(-c2sc(-c3noc(CC(C)(C)C(=O)O)n3)nc2C(=O)N2CCCC[C@@H]2C)c(C(F)F)c1Cl)C(F)(F)F [Example 10/4, 3-(3-(5-(3-Chloro-2-(difluoromethyl)-4-(N—((S)-1,1,1-trifluorobutan-2-yl)sulfamoyl)phenyl)-4-((S)-2-methylpiperidine-1-carbonyl)thiazol-2-yl)-1,2,4-oxadiazol-5-yl)-2,2-dimethylpropanoic acid]		33	99	
